What was measured:
[1] = physical properties of the solvent; conditions: Table 1
[2] = degree of cleaning fabrics: Lab differences, whiteness and yellowness index of soil test cloth
Method: In the tests of the degree of cleaning fabrics in Examples 1 to 9, four kinds of standard soil test cloths are taken, the types of the cloth are respectively polyester, cotton, wool, polyester/cotton. The conditions of the tests of degree of cleaning fabrics are similar to those of the above dry-cleaning tests. After the soil test cloths have been dry cleaned, the reflectance, the whiteness index and the yellowness index thereof are measured by means of a color matching system to identify the degree of cleaning fabrics of the dry-cleaning solvents.
After the soil test cloths of polyester/cotton, wool, cotton and polyester are respectively dry-cleaned with the dry-cleaning solvents, the degrees of cleaning the soil test cloths of the dry-cleaning solvents is measured. The dry-cleaning procedure is carried out under the conditions that temperature is 25±2° C., liquid ratio is 1:40 and dry cleaning time is 30 minutes in a shaking manner and then the soil test cloths which have been dry-cleaned are dried under the temperature of 60±2° C.
Color differences can be analyzed according to Munsell Color Solid Theory and a bright and a chroma of a hue can be decided by means of a solid rectangular coordinate.
According to an opponent-color coordinate recommended by the CIE (Commission International de I'Eclairage) Society in 1976, wherein a redness-greenness coordinate is set to be the “a” coordinate with redness as a positive value and greenness as a negative together with a yellowness-blueness coordinate forms the “b” coordinate wherein yellowness indicates a positive value and blueness indicates a negative value, the two sets of coordinates form a two dimensional coordinate further with a third coordinate which indicates the bright to form the opponent-color coordinate designed by the CIE Lab, a bright value “L” in the third coordinate, a chroma value “a” in the redness-greenness coordinate and a chroma value “b” in the yellowness-blueness coordinate are related to red, blue, green tristimulus values as shown in the following:
ΔE=((ΔL)^2+(Δa)^2+(Δb)^2)^½
In FIG. 1, Δc indicates the chroma difference between a chroma value of a specimen sample and a chroma value of a standard sample, and Δh indicates the hue angle difference. By means of the analysis of chroma difference and hue angle difference, the two values Δc and Δh, can be easily obtained.

[3] = soil test cloth of cotton, dry cleaned five times
[4] = soil test cloth of cotton, dry cleaned one time
[5] = soil test cloth of cotton, dry cleaned two times
[6] = soil test cloth of polyester/cotton, dry cleaned five times
[7] = soil test cloth of polyester/cotton, dry cleaned one time
[8] = soil test cloth of polyester/cotton, dry cleaned two times
[9] = soil test cloth of polyester, dry cleaned five times
[10] = soil test cloth of polyester, dry cleaned one time
[11] = soil test cloth of polyester, dry cleaned two times
[12] = soil test cloth of wool, dry cleaned five times
[13] = soil test cloth of wool, dry cleaned one time
[14] = soil test cloth of wool, dry cleaned two times

ClC(Cl)=C(Cl)Cl [perchloroethylene]
Dangerousness (dangerousness (Table 1)): medium toxicity
Boiling point [1]: 121 °C
Solubility [1]: Insoluble in water,
Specific gravity [1]: 1.625
ΔE [2, 3]: 2.88
ΔL [2, 3]: 2.8
Δa [2, 3]: −0.02
Δb [2, 3]: −0.68
Δc [2, 3]: −0.66
Δh [2, 3]: 0.16
yellowness index ([2]; soil test cloth of cotton, dry cleaned five times, before dry cleaned 3.85): 2.18
whiteness index ([2]; soil test cloth of cotton, dry cleaned five times, before dry cleaned 39.47): 45.97
ΔE [2, 4]: 4.27
ΔL [2, 4]: 4.22
Δa [2, 4]: −0.02
Δb [2, 4]: −0.61
Δc [2, 4]: −0.6
Δh [2, 4]: 0.14
yellowness index ([2]; soil test cloth of cotton, dry cleaned one time, before dry cleaned 3.85): 2.31
whiteness index ([2]; soil test cloth of cotton, dry cleaned one time, before dry cleaned 39.47): 47.96
ΔE [2, 5]: 4.09
ΔL [2, 5]: 4.04
Δa [2, 5]: −0.04
Δb [2, 5]: −0.64
Δc [2, 5]: −0.62
Δh [2, 5]: 0.18
yellowness index ([2]; soil test cloth of cotton, dry cleaned two times, before dry cleaned 3.85): 2.23
whiteness index ([2]; soil test cloth of cotton, dry cleaned two times, before dry cleaned 39.47): 47.78
ΔE [2, 6]: 2.83
ΔL [2, 6]: 2.8
Δa [2, 6]: −0.06
Δb [2, 6]: −0.4
Δc [2, 6]: −0.39
Δh [2, 6]: 0.13
yellowness index ([2]; soil test cloth of polyester/cotton, dry cleaned five times, before dry cleaned 3.41): 2.33
whiteness index ([2]; soil test cloth of polyester/cotton, dry cleaned five times, before dry cleaned 37.82): 43.16
ΔE [2, 7]: 3.29
ΔL [2, 7]: 3.26
Δa [2, 7]: −0.04
Δb [2, 7]: −0.41
Δc [2, 7]: −0.4
Δh [2, 7]: 0.11
yellowness index ([2]; soil test cloth of polyester/cotton, dry cleaned one time, before dry cleaned 3.41): 2.32
whiteness index ([2]; soil test cloth of polyester/cotton, dry cleaned one time, before dry cleaned 37.82): 43.87
ΔE [2, 8]: 3.96
ΔL [2, 8]: 3.94
Δa [2, 8]: −0.07
Δb [2, 8]: −0.43
Δc [2, 8]: −0.41
Δh [2, 8]: 0.15
yellowness index ([2]; soil test cloth of polyester/cotton, dry cleaned two times, before dry cleaned 3.41): 2.23
whiteness index ([2]; soil test cloth of polyester/cotton, dry cleaned two times, before dry cleaned 37.82): 44.96
ΔE [2, 9]: 5.67
ΔL [2, 9]: 5.26
Δa [2, 9]: −0.14
Δb [2, 9]: −0.14
Δc [2, 9]: 0.15
Δh [2, 9]: −0.13
whiteness index ([2]; soil test cloth of polyester, dry cleaned five times, before dry cleaned 45.11): 55.02
yellowness index ([2]; soil test cloth of polyester, dry cleaned five times, before dry cleaned −10.35): −10.21
ΔE [2, 10]: 6.68
ΔL [2, 10]: 6.68
Δa [2, 10]: −0.19
Δb [2, 10]: 0.07
Δc [2, 10]: −0.06
Δh [2, 10]: −0.19
whiteness index ([2]; soil test cloth of polyester, dry cleaned one time, before dry cleaned 45.11): 56.16
yellowness index ([2]; soil test cloth of polyester, dry cleaned one time, before dry cleaned −10.35): −9.61
ΔE [2, 11]: 7.61
ΔL [2, 11]: 7.6
Δa [2, 11]: −0.17
Δb [2, 11]: −0.2
Δc [2, 11]: 0.21
Δh [2, 11]: −0.16
whiteness index ([2]; soil test cloth of polyester, dry cleaned two times, before dry cleaned 45.11): 58.86
yellowness index ([2]; soil test cloth of polyester, dry cleaned two times, before dry cleaned −10.35): −10.22
ΔE [2, 12]: 1.9
ΔL [2, 12]: −1.66
Δa [2, 12]: −0.1
Δb [2, 12]: −0.93
Δc [2, 12]: −0.9
Δh [2, 12]: 0.27
yellowness index ([2]; soil test cloth of wool, dry cleaned five times, before dry cleaned 11.22): 9
whiteness index ([2]; soil test cloth of wool, dry cleaned five times, before dry cleaned 22.57): 23.54
ΔE [2, 13]: 2.1
ΔL [2, 13]: −2.1
Δa [2, 13]: −0.04
Δb [2, 13]: −0.03
Δc [2, 13]: −0.03
Δh [2, 13]: 0.05
yellowness index ([2]; soil test cloth of wool, dry cleaned one time, before dry cleaned 11.22): 11.37
whiteness index ([2]; soil test cloth of wool, dry cleaned one time, before dry cleaned 22.57): 20.62
ΔE [2, 14]: 2.09
ΔL [2, 14]: −1.91
Δa [2, 14]: −0.09
Δb [2, 14]: −0.83
Δc [2, 14]: −0.8
Δh [2, 14]: 0.23
yellowness index ([2]; soil test cloth of wool, dry cleaned two times, before dry cleaned 11.22): 9.3
whiteness index ([2]; soil test cloth of wool, dry cleaned two times, before dry cleaned 22.57): 22.99
increase of whiteness index ([2]; soil test cloth of wool, times not stated): does not change appreciably

Reference: patent US6491729B1
